The results in this text go back to patent US20220324835A1 (Nurix Therapeutics, Inc., priority 2018, published 2022).

Assay [1] addresses Cbl-b (Homo sapiens, UniProt Q13191). In words: Cbl-b activity assay (Cbl-b inhibition assay), TR-FRET of Cbl-b interaction with UbcH5B-Ub. Format: biochemical. Conditions: assay buffer with 100 mM NaCl, 60 nM Src kinase; read-out: Cbl-b activity IC50. The essentials: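 TR-FRET readout of Cbl-b binding to Bodipy-fluorescein N-terminally labeled Ub conjugated to UbcH5B C85K, measured with compound present. After compound incubation, 60 nM Src kinase with 1 mM ATP and 5 mM MgCl2 (final) was added for 1.5 h, then a further 1 h incubation; asterisked values used 50 mM NaCl buffer and 30 nM Src.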
In general terms: Time-resolved FRET reads energy transfer from a long-lived donor to a nearby acceptor.

Assay [2] has as its system T-cell. Description: CD25 cell surface staining on T-cells co-stimulated with anti-CD3 and anti-CD28 antibody (Biological Example 2). The format is cell-based, human. The settings on record: Homo sapiens, T-cell; for fold induction at 4 µM: 4 μM Cbl-b inhibitor. The essentials: (§1)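 No assay protocol given; T-cells stimulated with anti-CD3 alone or anti-CD3 plus anti-CD28, with or without Cbl-b inhibitor. Activation read as IL-2 secretion or CD25 surface staining, expressed as fold over baseline from uninhibited cells […].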

Assay [3] has as its system T-cell. Description: CD25 cell surface staining on T-cells stimulated with anti-CD3 antibody alone (Biological Example 2). Format: cell-based, human. Conditions: T-cell; for fold induction at 8 µM: 8 μM Cbl-b inhibitor.
Assay [4] concerns T-cell. In words: IL-2 secretion from T-cells co-stimulated with anti-CD3 and anti-CD28 antibody (Biological Example 2). Format: cell-based, human. The settings on record: Homo sapiens, T-cell; for fold induction at 4 µM: 4 μM Cbl-b inhibitor. A digest of the protocol:
as §1

Setting [5] is: fold change over baseline, 0.3 μM Cbl-b inhibitor, primary human total T-cells, read-out: CD25 staining Anti-CD3/Anti-CD28 stimulation.
The mark [6] stands for this setting: fold change over baseline, 1 μM Cbl-b inhibitor, primary human total T-cells, read-out: CD25 staining Anti-CD3/Anti-CD28 stimulation.
Where [7] appears, read: fold change over baseline, primary human total T-cells, read-out: CD25 staining Anti-CD3/Anti-CD28 stimulation.
Where [8] appears, read: fold change over baseline, 1 μM Cbl-b inhibitor, primary human total T-cells, read-out: CD25 staining Anti-CD3 stimulation.
The mark [9] stands for this setting: fold change over baseline, primary human total T-cells, read-out: CD25 staining Anti-CD3 stimulation.
Setting [10] is: fold change over baseline, 0.3 μM Cbl-b inhibitor, primary human total T-cells, read-out: IL-2 secretion Anti-CD3/Anti-CD28 stimulation.
Setting [11] is: fold change over baseline, 1 μM Cbl-b inhibitor, primary human total T-cells, read-out: IL-2 secretion Anti-CD3/Anti-CD28 stimulation.
Where [12] appears, read: fold change over baseline, primary human total T-cells, read-out: IL-2 secretion Anti-CD3/Anti-CD28 stimulation.
Setting [13] is: read-out: CD25 staining, Anti-CD3/Anti-CD28 stimulation, fold change over baseline.
Setting [14] is: read-out: IL-2 secretion, Anti-CD3/Anti-CD28 stimulation, fold change over baseline.

Sequence of Cbl-b (Q13191 36-427): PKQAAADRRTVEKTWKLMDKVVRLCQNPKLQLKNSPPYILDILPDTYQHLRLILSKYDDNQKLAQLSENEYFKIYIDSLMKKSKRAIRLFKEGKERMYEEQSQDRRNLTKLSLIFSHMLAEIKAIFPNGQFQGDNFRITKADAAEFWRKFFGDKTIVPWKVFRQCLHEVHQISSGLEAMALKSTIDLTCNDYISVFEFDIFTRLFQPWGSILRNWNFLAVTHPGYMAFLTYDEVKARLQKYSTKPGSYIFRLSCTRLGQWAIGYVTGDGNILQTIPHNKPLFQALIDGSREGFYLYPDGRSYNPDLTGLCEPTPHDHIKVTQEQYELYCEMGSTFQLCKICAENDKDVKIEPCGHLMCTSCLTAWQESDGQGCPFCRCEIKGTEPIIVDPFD

As a reminder, the IC50 is the concentration that inhibits the measured activity by half. `Cc1cc(C(=O)Nc2cccc([C@@H](C)Cc3nncn3C)c2)nc(C2CC2)n1` [Compound 325, (S)-2-Cyclopropyl-6-methyl-N-(3-(1-(4-methyl-4H-1,2,4-triazol-3-yl)propan-2-yl)phenyl)pyrimidine-4-carboxamide]: in assay [1], the IC50 lay in the range of 100 to 300 nM. Moreover, the fold induction at 0.3 µM lay within 1.01 to 1.3 in assay [2] (setting [5]) and 1.01 to 2.5 in assay [4] (setting [10]). Further, the fold induction at 1 µM in assay [2] (setting [6]) fell in the range of 1.01 to 1.3; in assay [3] (setting [8]), 0.801 to 1; in assay [4] (setting [11]) it was 1.01 to 2.5. Besides, the fold induction at 4 µM in assay [2] (setting [7]) fell in the range of 1.01 to 1.3; in assay [4] (setting [12]), 2.51 to 5. The fold induction at 8 µM in assay [3] (setting [9]) is above 1.
With `Cc1cc(C(=O)Nc2cccc([C@H](C)Cc3nocc3C)c2)nc(C2CC2)n1` [Compound 330, (R)-2-cyclopropyl-6-methyl-N-(3-(1-(4-methylisoxazol-3-yl)propan-2-yl)phenyl)pyrimidine-4-carboxamide], in assay [1], the IC50 is below 100 nM. Moreover, the fold induction at 0.3 µM in assay [2] (setting [5]) fell in the range of 1.01 to 1.3; in assay [4] (setting [10]), 1.01 to 2.5. Also, the fold induction at 1 µM in assay [2] (setting [6]) lay in the range of 1.01 to 1.3; in assay [3] (setting [8]), 0.801 to 1; in assay [4] (setting [11]), 2.51 to 5. Also, the fold induction at 4 µM in assay [2] (setting [7]) was in the range of 1.01 to 1.3; in assay [4] (setting [12]) it was 5 to 7.5. Moreover, in assay [3] (setting [9]), the fold induction at 8 µM was above 1.
For `Cn1cnnc1CC1(c2cccc(NC(=O)c3nc4c(C(F)(F)F)cccc4[nH]3)c2)COC1` [Compound 335, N-(3-{3-[(4-methyl-1,2,4-triazol-3-yl)methyl]oxetan-3-yl}phenyl)-4-(trifluoromethyl)-1H-1,3-benzodiazole-2-carboxamide], the IC50 in assay [1] was below 100 nM. The fold induction at 0.3 µM in assay [2] (setting [5]) is 1.31 to 1.5; in assay [4] (setting [10]), 2.51 to 5. In addition, the fold induction at 1 µM was in the range of 1.51 to 1.75 in assay [2] (setting [6]), 0.801 to 1 in assay [3] (setting [8]) and 5 to 7.5 in assay [4] (setting [11]). The fold induction at 4 µM in assay [2] (setting [7]) was 1.51 to 1.75; in assay [4] (setting [12]), above 7.5. The fold induction at 8 µM in assay [3] (setting [9]) is above 1.
As for `Cc1cc(C(=O)Nc2cccc(C3(Cc4nncn4C)COC3)c2)nc(C2CC2)n1` [Compound 336, 2-cyclopropyl-6-methyl-N-(3-(3-((4-methyl-4H-1,2,4-triazol-3-yl)methyl)oxetan-3-yl)phenyl)pyrimidine-4-carboxamide], in assay [1], the IC50 is below 100 nM. Further, the values for the fold induction at 0.3 µM in assay [2] (setting [5]) and in assay [4] (setting [10]) were 1.31 to 1.5 and 5 to 7.5, respectively. Also, the fold induction at 1 µM in assay [2] (setting [6]) is above 1.76; in assay [3] (setting [8]), above 1; in assay [4] (setting [11]), above 7.5. Moreover, the fold induction at 4 µM in assay [2] (setting [7]) was 1.51 to 1.75; in assay [4] (setting [12]), above 7.5. Moreover, the fold induction at 8 µM in assay [3] (setting [9]) was above 1.
In the case of `C[C@H](Cc1nncn1C)c1cc(NC2COC2)nc(N2Cc3c(cccc3C(F)(F)F)C2=O)c1` [Compound 352, 2-{4-[(2R)-1-(4-methyl-4H-1,2,4-triazol-3-yl)propan-2-yl]-6-[(oxetan-3-yl)amino]pyridin-2-yl}-4-(trifluoromethyl)-2,3-dihydro-1H-isoindol-1-one], the IC50 in assay [1] is below 100 nM. In addition, the fold induction at 0.3 µM fell in the range of 1.01 to 1.3 in assay [2] (setting [5]) and 1.01 to 2.5 in assay [4] (setting [10]). Besides, the fold induction at 1 µM in assay [2] (setting [6]) was in the range of 1.01 to 1.3; in assay [3] (setting [8]), 0.801 to 1; in assay [4] (setting [11]), 1.01 to 2.5. In addition, the fold induction at 4 µM is 1.31 to 1.5 in assay [2] (setting [7]) and 5 to 7.5 in assay [4] (setting [12]). Further, the fold induction at 8 µM in assay [3] (setting [9]) is above 1.
Consider `CC(C)Nc1cc([C@H](C)Cc2nncn2C)cc(N2Cc3c(cccc3C(F)(F)F)C2=O)n1` [Compound 353, 2-{4-[(2R)-1-(4-methyl-4H-1,2,4-triazol-3-yl)propan-2-yl]-6-[(propan-2-yl)amino]pyridin-2-yl}-4-(trifluoromethyl)-2,3-dihydro-1H-isoindol-1-one], for which, in assay [1], the IC50 is below 100 nM. The fold induction at 0.3 µM fell in the range of 1.01 to 1.3 in assay [2] (setting [5]) and 1.01 to 2.5 in assay [4] (setting [10]). In addition, the values for the fold induction at 1 µM in assay [2] (setting [6]), in assay [3] (setting [8]) and in assay [4] (setting [11]) were 1.01 to 1.3, 0.801 to 1 and 2.51 to 5, respectively. The figures for the fold induction at 4 µM in assay [2] (setting [7]) and in assay [4] (setting [12]) were 1.31 to 1.5 and above 7.5, respectively. Further, the fold induction at 8 µM in assay [3] (setting [9]) is above 1.
In the case of `CCOc1cc([C@H](C)Cc2nncn2C)cc(N2Cc3c(cccc3C(F)(F)F)C2=O)n1` [Compound 358, (R)-2-(6-ethoxy-4-(1-(4-methyl-4H-1,2,4-triazol-3-yl)propan-2-yl)pyridin-2-yl)-4-(trifluoromethyl)isoindolin-1-one], the IC50 in assay [1] was below 100 nM. In addition, the fold induction at 0.3 µM in assay [2] (setting [5]) lay in the range of 1.01 to 1.3; in assay [4] (setting [10]) it was 2.51 to 5. The fold induction at 1 µM is 1.31 to 1.5 in assay [2] (setting [6]), above 1 in assay [3] (setting [8]) and 5 to 7.5 in assay [4] (setting [11]). Also, the fold induction at 4 µM was 1.31 to 1.5 in assay [2] (setting [7]) and above 7.5 in assay [4] (setting [12]). Besides, in assay [3] (setting [9]), the fold induction at 8 µM was above 1.
For `CCNc1cc([C@H](C)Cc2nncn2C)cc(N2Cc3c(cccc3C(F)(F)F)C2=O)n1` [Compound 360, (R)-2-(6-(ethylamino)-4-(1-(4-methyl-4H-1,2,4-triazol-3-yl)propan-2-yl)pyridin-2-yl)-4-(trifluoromethyl)isoindolin-1-one], the IC50 in assay [1] was below 100 nM. The figures for the fold induction at 0.3 µM in assay [2] (setting [5]) and in assay [4] (setting [10]) were 1.31 to 1.5 and 2.51 to 5, respectively. In addition, the fold induction at 1 µM is 1.51 to 1.75 in assay [2] (setting [6]), above 1 in assay [3] (setting [8]) and above 7.5 in assay [4] (setting [11]). For the same molecule, the fold induction at 4 µM was 1.51 to 1.75 in assay [2] (setting [7]) and above 7.5 in assay [4] (setting [12]). For the same molecule, the fold induction at 8 µM in assay [3] (setting [9]) was above 1.
Turning to `CNc1cc([C@H](C)Cc2nncn2C)cc(N2Cc3c(cccc3C(F)(F)F)C2=O)n1` [Compound 363, (R)-2-(4-(1-(4-methyl-4H-1,2,4-triazol-3-yl)propan-2-yl)-6-(methylamino)pyridin-2-yl)-4-(trifluoromethyl)isoindolin-1-one], the concentration for half-maximal inhibition (IC50) in assay [1] is below 100 nM. In addition, the fold induction at 0.3 µM in assay [2] (setting [5]) is 1.01 to 1.3; in assay [4] (setting [10]), 1.01 to 2.5. For the same molecule, the figures for the fold induction at 1 µM in assay [2] (setting [6]), in assay [3] (setting [8]) and in assay [4] (setting [11]) were 1.01 to 1.3, 0.601 to 0.8 and 1.01 to 2.5, respectively. For the same molecule, the fold induction at 4 µM lay in the range of 1.31 to 1.5 in assay [2] (setting [7]) and 5 to 7.5 in assay [4] (setting [12]). In assay [3] (setting [9]), the fold induction at 8 µM was above 1.
Regarding `CN1CC2CCC(C1)N2c1cc2c(c(C(F)(F)F)c1)CN(c1cccc(C3(Cc4nncn4C)COC3)c1)C2=O` [Compound 386, 2-(3-(3-((4-Methyl-4H-1,2,4-triazol-3-yl)methyl)oxetan-3-yl)phenyl)-6-(3-methyl-3,8-diazabicyclo[3.2.1]octan-8-yl)-4-(trifluoromethyl)isoindolin-1-one], in assay [1], the IC50 was below 100 nM. Besides, the fold induction at 0.3 µM in assay [2] (setting [13]) was 1.31 to 1.5; in assay [4] (setting [14]), above 7.5. Further, the fold induction at 1 µM was 1.31 to 1.5 in assay [2] (setting [13]); above 1 in assay [3] (Homo sapiens, read-out: CD25 staining, Anti-CD3 stimulation, fold change over baseline); above 7.5 in assay [4] (setting [14]).
For the molecule `C[C@H](c1cc2c(c(C(F)(F)F)c1)CN(c1cccc(C3(C(F)(F)c4nncn4C)COC3)c1)C2=O)N1CC[C@H](F)C1` [Example 571, 2-(3-(3-(difluoro(4-methyl-4H-1,2,4-triazol-3-yl)methyl)oxetan-3-yl)phenyl)-6-((R)-1-((S)-3-fluoropyrrolidin-1-yl)ethyl)-4-(trifluoromethyl)isoindolin-1-one], the half-inhibitory concentration (IC50) in assay [1] was below 100 nM. Besides, the fold induction at 0.3 µM is above 1.76 in assay [2] (0.3 μM Cbl-b inhibitor, fold change over baseline (anti-CD3/anti-CD28 stimulated T-cells without inhibitor), read-out: CD25 staining Anti-CD3/Anti-CD28 stimulation) and above 7.5 in assay [4] (0.3 μM Cbl-b inhibitor, fold change over baseline (anti-CD3/anti-CD28 stimulated T-cells without inhibitor), read-out: IL-2 secretion Anti-CD3/Anti-CD28 stimulation). In addition, the fold induction at 1 µM in assay [2] (1 μM Cbl-b inhibitor, fold change over baseline (anti-CD3/anti-CD28 stimulated T-cells without inhibitor), read-out: CD25 staining Anti-CD3/Anti-CD28 stimulation) is above 1.76; in assay [3] (Homo sapiens, 1 μM Cbl-b inhibitor, fold change over baseline (anti-CD3/anti-CD28 stimulated T-cells without inhibitor), read-out: CD25 staining Anti-CD3 stimulation), above 1; in assay [4] (1 μM Cbl-b inhibitor, fold change over baseline (anti-CD3/anti-CD28 stimulated T-cells without inhibitor), read-out: IL-2 secretion Anti-CD3/Anti-CD28 stimulation), above 7.5.
